The target in assay [1] is T1, baboon prostaglandin receptor EP4 (baEP4) (Papio cynocephalus, UniProt Q7JGJ7). The assay can be described thus: cAMP accumulation (SPA) in CHO cells transiently transfected with baboon EP4. Conditions: 12 minutes treatment, IBMX present. In kind it is cell-based. Here is the method: FIG. 6 provides characterization of secondary signaling in CHO cells expressing baboon prostaglandin receptor EP4. An SPA assay was performed on CHO cells transiently transfected with baboon EP4 following treatment for 12 minutes with either (▪) PGE2 or the EP4 specific ligand (●) EP4SL. Error bars represent one standard deviation.
T1 sequence (Q7JGJ7 entry or part of it): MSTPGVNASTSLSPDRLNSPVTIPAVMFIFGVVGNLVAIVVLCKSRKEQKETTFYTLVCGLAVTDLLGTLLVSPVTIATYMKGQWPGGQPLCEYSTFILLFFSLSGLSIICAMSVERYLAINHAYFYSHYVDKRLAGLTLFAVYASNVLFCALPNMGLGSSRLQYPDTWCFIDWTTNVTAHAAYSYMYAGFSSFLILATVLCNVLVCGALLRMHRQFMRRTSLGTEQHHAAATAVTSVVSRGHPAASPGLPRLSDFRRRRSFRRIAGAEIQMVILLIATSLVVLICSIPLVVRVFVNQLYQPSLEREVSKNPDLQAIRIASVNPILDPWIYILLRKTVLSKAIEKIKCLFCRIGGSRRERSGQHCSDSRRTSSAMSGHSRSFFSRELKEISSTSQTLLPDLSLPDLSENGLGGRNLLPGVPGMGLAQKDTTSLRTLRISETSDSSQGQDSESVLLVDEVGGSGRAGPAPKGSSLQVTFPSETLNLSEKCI
(§1) Secondary signaling in CHO cells expressing baEP4 or cynEP4 was measured by cAMP accumulation. CHO cells transiently transfected with baEP4 or cynEP4 were treated for 12 minutes with various concentrations of PGE2 in the presence of 2 mM IBMX. Accumulation of intracellular cAMP was measured at the end of the treatment period by use of a commercially available scintillation proximity assay (SPA) kit (Amersham, Arlington Heights, Ill.).
(§2) The day prior to transfection, CHO—K1 cells were plated in 100 mm dishes (Corning, Corning, N.Y.) at 6×10^4 cells/cm^2 in DMEM/F12 (Life Technologies) supplemented with 10% fetal calf serum (FCS; Gemini Bio-Products, Calabasas, Calif.). […]
(§3) To measure stimulation of cAMP production, CHO cells transiently transfected with the baboon EP4 or cynomolgus macaque EP4 receptor were plated at 20,000 cells/well in poly-D lysine coated 96-well tissue-culture plates (Becton-Dickinson, Franklin Lakes, N.J.) and allowed to grow for 72 hours. […] Assay plates were then counted in a Wallac Trilux counter (Perkin Elmer, Boston, Mass.).

The target in assay [2] is T2, cynomolgus macaque prostaglandin receptor EP4 (cynEP4) (Macaca fascicularis, UniProt Q95J39). The assay can be described thus: Competition binding with 3H-PGE2 on CHO-K1 cells transiently transfected with cynomolgus macaque EP4. Conditions: for IC50: cynEP4 transfected CHO-K1 whole cells, 3 nM 3H-PGE2, 1 hr on ice, read-out: IC50, displacement of 3H-PGE2 binding. (In general: Displacement assays read how much labelled ligand stays bound in the presence of the test substance.)
T2 sequence (Q95J39 entry or part of it): as the sequence (Q7JGJ7 entry or part of it) above
Procedure: Each indicated concentration of (▪) PGE2, (♦) EP4SL, (▴) butaprost, or (●) sulprostone was incubated with three wells of a 24-well dish of CHO cells transiently transfected with cynEP4 for 1 hr on ice in the presence of 3 nM ^3H-PGE2. Following washing and solubilization of the cells, specific binding was determined by scintillation counting.
(§4) To test the binding and signaling characteristics of this putative ba/cynEP4 receptor, DNA fragments containing the entire open reading frames of each baboon and cynomolgus macaque were separately transiently transfected into CHO—K1 cells.
CHO cells transiently transfected with the baboon EP4 or cynomolgus macaque EP4 receptor were plated at 60,000 cells/well in 24-well tissue-culture dishes (Corning, Corning, N.Y.) and allowed to grow for 48 hours. Whole cell binding reactions (0.2 ml per well) containing 3 nM ^3H-PGE2 plus unlabeled competitor (10^−5 to 10^−10 M) were performed on ice for 1 hr. Unbound radioligand was removed by extensive washing, the cells were solubilized with 1% SDS, and the bound ^3H-PGE2 quantitated by scintillation counting.

The next assay concerns parental CHO—K1 cells. Nature of the assay: cAMP levels in parental CHO-K1 cells. Conditions: parental (untransfected) CHO-K1 cells. The class given is cell-based, Chinese hamster. A general note: cAMP levels reflect the balance of adenylyl cyclase and phosphodiesterase activity.
In assay [3] the target is T2, cynomolgus macaque prostaglandin receptor EP4 (cynEP4). The assay can be described thus: cAMP accumulation (SPA) in CHO cells transiently transfected with cynomolgus macaque EP4. The class given is cell-based. The following applies: 12 minutes treatment, IBMX present. Here is the method:
FIG. 7 provides characterization of secondary signaling in CHO cells expressing cynomolgus macaque prostaglandin receptor EP4. An SPA assay was performed on CHO cells transiently transfected with cynEP4 following treatment for 12 minutes with either (▪) PGE2 or the EP4 specific ligand (●) EP4SL. Error bars represent one standard deviation.
as §1, §2, §3

Assay [4] concerns the target T1, baboon prostaglandin receptor EP4 (baEP4). The assay can be described thus: Competition binding with 3H-PGE2 on CHO-K1 cells transiently transfected with baboon EP4. The following applies: for IC50: baEP4 transfected CHO-K1 whole cells, 3 nM 3H-PGE2, 1 hr on ice, read-out: IC50, displacement of 3H-PGE2 binding.
Procedure: Following washing and solubilization of the cells, specific binding was determined by scintillation counting.
as §4
The day prior to transfection, CHO—K1 cells were plated in 100 mm dishes (Corning, Corning, N.Y.) at 6×10^4 cells/cm^2 in DMEM/F12 (Life Technologies) supplemented with 10% fetal calf serum (FCS; Gemini Bio-Products, Calabasas, Calif.). The next day, each plate of cells was transfected with 15 g of either baboon or cynomolgus macaque EP4-pCR3.1-Uni plasmid DNA using Lipofectamine 2000 reagent (Life Technologies) according to the manufacturer's protocol. Briefly, 45 l of Lipofectamine 2000 reagent was diluted into 1.5 ml of D-MEM/F12 without serum and incubated at room temperature for 5 minutes. During this time, 15 g of either baboon or cynomolgus macaque EP4-pCR3.1-Uni plasmid DNA was diluted into 0.5 ml of D-MEM/F12 without serum. The diluted Lipofectamine 2000 reagent and the DNA were then mixed and incubated an additional 20 minutes at room temperature. 8 ml D-MEM/F12 without serum was then added to each reaction and carefully added to a plate of CHO cell previously rinsed with serum free D-MEM/F12. These cells were then incubated at 37° C. with 5% CO2 for 6 hr at which time 1 ml FCS was added per plate and the incubation continued at 37° C. with 5% CO2 overnight. The following day, the cells were split to either 24-well or 96-well dishes for use in ligand binding and/or secondary signaling analyses.
CHO cells transiently transfected with the baboon EP4 or cynomolgus macaque EP4 receptor were plated at 60,000 cells/well in 24-well tissue-culture dishes (Corning, Corning, N.Y.) and allowed to grow for 48 hours. […] Unbound radioligand was removed by extensive washing, the cells were solubilized with 1% SDS, and the bound ^3H-PGE2 quantitated by scintillation counting.

Molecules are shown by their SMILES.

The record followed here is US20030059421A1, “DNA encoding the baboon and cynomolgus macaque prostoglandin E2 receptor EP4 subtype” (Pfizer Inc., priority 2001, published 2003).

The EC50 is the concentration giving half of the maximal effect. The low end stands for higher potency in that assay, the high end for lower potency in that assay. As a reminder, the IC50 is the concentration needed to halve the response being measured. For the compound `O=C(O)CCCCCCN1C(=O)CCC1CCC(O)Cc1ccccc1` (stereo not drawn) [EP4SL, 7-[2-(3-hydroxy-4-phenyl-butyl)-5-oxo-pyrrolidin-1-yl]-heptanoic acid], the EC50 amounted to 872 nM in assay [1] and 560 nM in assay [3]. For the same compound, the IC50 in assay [2] amounted to 300 nM; in assay [4], 361 nM. Also, in the assay on parental CHO—K1 cells, the “increased levels of cAMP, result in words” value is “not in parental CHO—K1 cells”.

In the case of `CCCCC[C@H](O)/C=C/[C@H]1[C@H](O)CC(=O)[C@@H]1C/C=C\CCCC(=O)O` [PGE2, Prostaglandin E2], the figures for the EC50 in assay [1] and in assay [3] were 22.4 nM and 8.9 nM, respectively. Also, the concentration for half-maximal inhibition (IC50) in assay [2] stood at 2.5 nM; in assay [4] it was 2.6 nM. For the same compound, the “increased levels of cAMP, result in words” value with parental CHO—K1 cells is on record as “not in parental CHO—K1 cells”.

Turning to `CCCC1([C@H](O)C/C=C/[C@H]2[C@H](O)CC(=O)[C@@H]2CCCCCCC(=O)OC)CCC1` [butaprost], the “binding to the receptor (competition with 3H-PGE2), result in words” value in assay [2] (cynEP4 transfected CHO-K1 cells, competitor 10^-5 to 10^-10 M) is listed as “did not bind”; in assay [4] (baEP4 transfected CHO-K1 cells, competitor 10^-5 to 10^-10 M), “did not bind”.
